Experimental data published in article doi:10.1101/2025.10.03.680348v2, “Cathepsin K as a Key Protease in Processing of SARS-CoV-2 Spike Activation Sites and a Target of Dual-Inhibition” (biorxiv, 2025).

Tests used:
[1] = target: T1, hCatB (Human Cathepsin B) (Homo sapiens, UniProt P07858); experiment: fluorogenic inhibition assay, Z-FR-AMC ([…]); type: biochemical; settings: 0.1 M sodium acetate pH 5.5, 2.5 mM DTT, 2.5 mM EDTA, room temperature
T1 construct: gene CTSB; recombinant human enzyme, gift of J. Mort

[2] = target: T2, hCatL (human Cathepsin L) (Homo sapiens, UniProt P07711); experiment: fluorogenic inhibition assay, Z-FR-AMC ([…]); type: biochemical; settings: 0.1 M sodium acetate pH 5.5, 2.5 mM DTT, 2.5 mM EDTA, room temperature
T2 construct: gene CTSL; native enzyme from human liver, commercial (Fisher Scientific)
T2 sequence (P07711 114-288): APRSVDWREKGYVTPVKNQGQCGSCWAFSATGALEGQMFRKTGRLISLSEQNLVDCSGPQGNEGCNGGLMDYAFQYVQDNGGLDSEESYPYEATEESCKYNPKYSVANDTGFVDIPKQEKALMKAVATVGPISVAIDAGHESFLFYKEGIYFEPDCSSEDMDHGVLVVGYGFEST
T2 sequence (P07711 292-333): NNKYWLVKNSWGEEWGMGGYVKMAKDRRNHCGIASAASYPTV

CC(C)(C)[C@H](NC(=O)C(F)(F)F)C(=O)N1C[C@H]2[C@@H]([C@H]1C(=O)N[C@H](C#N)C[C@@H]1CCNC1=O)C2(C)C [Nirmatrelvir]
not inhibited by 10 μM [1]: > 10 µM | not inhibited by 10 μM [2]: > 10 µM
